{"source": "patent US10028966B2", "about": "(Avalyn Pharma Inc., priority 2014, dated 2018)", "key": {"[1]": {"assay": "Pharmacokinetics and tissue distribution (lung, plasma, heart, kidney) of co-solvent formulations, intratracheal bolus aerosol", "assay_type": "in vivo, Sprague-Dawley rats", "conditions": "pirfenidone about 4 mg/kg IT aerosol", "protocol": "Selected formulations were prepared for pharmacokinetic analysis following aerosol delivery to rat lung. […] Formulations prepared for this study are outlined in Table 9. […] The sample was agitated until completely dissolved. […] Filtered samples were analyzed by HPLC."}, "elastase": {"test_system": "elastase", "conditions": "unprocessed CF sputum directly treated; cited from earlier work"}, "[2]": {"conditions": "primary metabolite; cited from earlier work"}, "cancer patients": {"test_system": "cancer patients", "conditions": "cited from earlier work"}, "[3]": {"test_system": "relapsed/refractory multiple myeloma", "conditions": "cited from earlier work"}, "[4]": {"test_system": "EGFR mutation positive patients", "conditions": "cited from earlier work"}, "PI3K": {"test_system": "PI3K", "conditions": "cited from earlier work"}, "mTOR": {"biological_target": "mTOR (Homo sapiens, UniProt P42345)", "conditions": "cited from earlier work"}, "breast cancer stem cells": {"test_system": "breast cancer stem cells", "conditions": "mice; cited from earlier work"}, "p110-γ and p110-δ": {"test_system": "p110-γ and p110-δ", "conditions": "inhibits all four isoforms; cited from earlier work"}}, "data": [{"molecule": "O=C(O)c1ccc(=O)n(-c2ccccc2)c1", "values": [{"measurement": "5-carboxy metabolite, lung tissue, Mean", "setting": "[1]; 0 MIN (one value for all groups)", "value": 0.00, "unit": "μg/gram"}, {"measurement": "5-carboxy metabolite, lung tissue, Mean", "setting": "[1]; Group 1, 0.0333 hr", "value": 0.12, "unit": "μg/gram"}, {"measurement": "5-carboxy metabolite, lung tissue, Mean", "setting": "[1]; Group 1, 0.0667 hr", "value": 0.13, "unit": "μg/gram"}, {"measurement": "5-carboxy metabolite, lung tissue, Mean", "setting": "[1]; Group 1, 0.100 hr", "value": 0.48, "unit": "μg/gram"}, {"measurement": "5-carboxy metabolite, lung tissue, Mean", "setting": "[1]; Group 1, 0.167 hr", "value": 0.49, "unit": "μg/gram"}, {"measurement": "5-carboxy metabolite, lung tissue, Mean", "setting": "[1]; Group 1, 0.333 hr", "value": 0.96, "unit": "μg/gram"}, {"measurement": "5-carboxy metabolite, lung tissue, Mean", "setting": "[1]; Group 1, 0.667 hr", "value": 0.96, "unit": "μg/gram"}, {"measurement": "5-carboxy metabolite, lung tissue, Mean", "setting": "[1]; Group 1, 1 hr", "value": 0.73, "unit": "μg/gram"}, {"measurement": "5-carboxy metabolite, lung tissue, Mean", "setting": "[1]; Group 1, 2 hr", "value": 0.21, "unit": "μg/gram"}, {"measurement": "5-carboxy metabolite, lung tissue, Mean", "setting": "[1]; Group 1, 2.50 hr", "value": 0.10, "unit": "μg/gram"}, {"measurement": "5-carboxy metabolite, lung tissue, Mean", "setting": "[1]; Group 1, […]", "value": 0.48, "unit": "μg/gram"}, {"measurement": "5-carboxy metabolite, lung tissue, Mean", "setting": "[1]; Group 3, 0.0333 hr", "value": 0.05, "unit": "μg/gram"}, {"measurement": "5-carboxy metabolite, lung tissue, Mean", "setting": "[1]; Group 3, 0.0667 hr", "value": 0.36, "unit": "μg/gram"}, {"measurement": "5-carboxy metabolite, lung tissue, Mean", "setting": "[1]; Group 3, 0.100 hr", "value": 0.55, "unit": "μg/gram"}, {"measurement": "5-carboxy metabolite, lung tissue, Mean", "setting": "[1]; Group 3, 0.167 hr", "value": 0.86, "unit": "μg/gram"}, {"measurement": "5-carboxy metabolite, lung tissue, Mean", "setting": "[1]; Group 3, 0.333 hr", "value": 1.09, "unit": "μg/gram"}, {"measurement": "5-carboxy metabolite, lung tissue, Mean", "setting": "[1]; Group 3, 0.667 hr", "value": 0.81, "unit": "μg/gram"}, {"measurement": "5-carboxy metabolite, lung tissue, Mean", "setting": "[1]; Group 3, 1 hr", "value": 0.70, "unit": "μg/gram"}, {"measurement": "5-carboxy metabolite, lung tissue, Mean", "setting": "[1]; Group 3, 2 hr", "value": 0.32, "unit": "μg/gram"}, {"measurement": "5-carboxy metabolite, lung tissue, Mean", "setting": "[1]; Group 3, 2.50 hr", "value": 0.14, "unit": "μg/gram"}, {"measurement": "5-carboxy metabolite, lung tissue, Mean", "setting": "[1]; Group 3, […]", "value": 0.52, "unit": "μg/gram"}, {"measurement": "5-carboxy metabolite, lung tissue, Mean", "setting": "[1]; Group 5, 0.0333 hr", "value": 0.17, "unit": "μg/gram"}, {"measurement": "5-carboxy metabolite, lung tissue, Mean", "setting": "[1]; Group 5, 0.0667 hr", "value": 0.42, "unit": "μg/gram"}, {"measurement": "5-carboxy metabolite, lung tissue, Mean", "setting": "[1]; Group 5, 0.100 hr", "value": 0.35, "unit": "μg/gram"}, {"measurement": "5-carboxy metabolite, lung tissue, Mean", "setting": "[1]; Group 5, 0.167 hr", "value": 0.53, "unit": "μg/gram"}, {"measurement": "5-carboxy metabolite, lung tissue, Mean", "setting": "[1]; Group 5, 0.333 hr", "value": 1.32, "unit": "μg/gram"}, {"measurement": "5-carboxy metabolite, lung tissue, Mean", "setting": "[1]; Group 5, 0.667 hr", "value": 0.96, "unit": "μg/gram"}, {"measurement": "5-carboxy metabolite, lung tissue, Mean", "setting": "[1]; Group 5, 1 hr", "value": 0.75, "unit": "μg/gram"}, {"measurement": "5-carboxy metabolite, lung tissue, Mean", "setting": "[1]; Group 5, 2 hr", "value": 0.18, "unit": "μg/gram"}, {"measurement": "5-carboxy metabolite, lung tissue, Mean", "setting": "[1]; Group 5, 2.50 hr", "value": 0.10, "unit": "μg/gram"}, {"measurement": "5-carboxy metabolite, lung tissue, Mean", "setting": "[1]; Group 5, […]", "value": 0.45, "unit": "μg/gram"}, {"measurement": "5-carboxy metabolite, lung tissue, Mean", "setting": "[1]; Group 6, 0.0333 hr", "value": 0.17, "unit": "μg/gram"}, {"measurement": "5-carboxy metabolite, lung tissue, Mean", "setting": "[1]; Group 6, 0.0667 hr", "value": 0.43, "unit": "μg/gram"}, {"measurement": "5-carboxy metabolite, lung tissue, Mean", "setting": "[1]; Group 6, 0.100 hr", "value": 0.37, "unit": "μg/gram"}, {"measurement": "5-carboxy metabolite, lung tissue, Mean", "setting": "[1]; Group 6, 0.167 hr", "value": 0.64, "unit": "μg/gram"}, {"measurement": "5-carboxy metabolite, lung tissue, Mean", "setting": "[1]; Group 6, 0.333 hr", "value": 0.94, "unit": "μg/gram"}, {"measurement": "5-carboxy metabolite, lung tissue, Mean", "setting": "[1]; Group 6, 0.667 hr", "value": 0.92, "unit": "μg/gram"}, {"measurement": "5-carboxy metabolite, lung tissue, Mean", "setting": "[1]; Group 6, 1 hr", "value": 0.78, "unit": "μg/gram"}, {"measurement": "5-carboxy metabolite, lung tissue, Mean", "setting": "[1]; Group 6, 2 hr", "value": 0.24, "unit": "μg/gram"}, {"measurement": "5-carboxy metabolite, lung tissue, Mean", "setting": "[1]; Group 6, 2.50 hr", "value": 0.14, "unit": "μg/gram"}, {"measurement": "5-carboxy metabolite, lung tissue, Mean", "setting": "[1]; Group 6, […]", "value": 0.43, "unit": "μg/gram"}]}, {"molecule": "O=C(O)CCCC[C@@H](S)CCS", "note": "(racemic) [DHLA, dihydrolipoic acid]", "values": [{"measurement": "increase of sol elastase activity", "setting": "elastase", "value": "did not increase elastase activity"}]}, {"molecule": "O=C(O)c1ccc(=O)n(-c2ccccc2)c1", "note": "[5-carboxy-pirfenidone]", "values": [{"measurement": "share of urinary excretion", "setting": "[2]", "value": 95, "unit": "%"}]}, {"molecule": "N#CC1(c2ccc(NC(=O)c3cccnc3NCc3ccncc3)cc2)CCCC1", "note": "[Apatinib]", "values": [{"measurement": "complete response", "setting": "cancer patients; 65 cancer patients, Phase I/II", "value": 1.54, "unit": "%"}, {"measurement": "partial response", "setting": "cancer patients; 65 cancer patients, Phase I/II", "value": 12.31, "unit": "%"}, {"measurement": "progressive disease", "setting": "cancer patients; 65 cancer patients, Phase I/II", "value": 20, "unit": "%"}, {"measurement": "stable disease", "setting": "cancer patients; 65 cancer patients, Phase I/II", "value": 66.15, "unit": "%"}, {"measurement": "maximum tolerated dose", "setting": "cancer patients; daily for 28 days", "value": 850, "unit": "mg/day"}]}, {"molecule": "CC(C)C[C@H](NC(=O)[C@H](Cc1ccccc1)NC(=O)c1cnccn1)B(O)O", "note": "[Bortezomib]", "values": [{"measurement": "patients with peripheral neuropathy", "setting": "[3]; human, in vivo", "value": 30, "unit": "%"}, {"measurement": "time to peak concentrations", "setting": "[3]; intravenous administration", "value": "about 30 minutes"}]}, {"molecule": "C#Cc1cccc(Nc2ncnc3cc(OCCOC)c(OCCOC)cc23)c1", "note": "[Erlotinib]", "values": [{"measurement": "response rate", "setting": "[4]", "value": "approximately 60%"}]}, {"molecule": "CS(=O)(=O)N1CCN(Cc2cc3nc(-c4cccc5[nH]ncc45)nc(N4CCOCC4)c3s2)CC1", "note": "[GDC-0941]", "values": [{"measurement": "IC50", "setting": "PI3K", "value": "[…]"}]}, {"molecule": "Cc1c(CN2CCN(S(C)(=O)=O)CC2)sc2c(N3CCOCC3)nc(-c3cnc(N)nc3)nc12", "note": "[GNE-477]", "values": [{"measurement": "IC50", "setting": "mTOR", "value": 21, "unit": "nM"}]}, {"molecule": "CC[C@@H](C(=O)[C@@H](C)[C@@H](O)[C@H](C)[C@@H]1O[C@@H]([C@@H](CC)C(=O)O)CC[C@@H]1C)[C@H]1O[C@]2(C=C[C@@H](O)[C@]3(CC[C@@](C)([C@H]4CC[C@](O)(CC)[C@H](C)O4)O3)O2)[C@H](C)C[C@@H]1C", "note": "[Salinomycin]", "values": [{"measurement": "killing of breast cancer stem cells, times more effectively than paclitaxel", "setting": "breast cancer stem cells", "value": "at least 100 times"}]}, {"molecule": "Nc1nc(N)c2nc(-c3cccc(O)c3)c(-c3cccc(O)c3)nc2n1", "note": "[TG100-115]", "values": [{"measurement": "fold better potency against p110-γ and p110-δ", "setting": "p110-γ and p110-δ", "value": "5-10 fold"}]}, {"molecule": "DNase", "values": [{"measurement": "increase of sol elastase activity", "setting": "elastase", "value": 190, "unit": "%"}]}, {"molecule": "reduced rhTrx: stable reduced form of recombinant human thioredoxin (protein, UniProt P10599 2-105, looked up, reduced form) Thioredoxin: VKQIESKTAFQEALDAAGDKLVVVDFSATWCGPCKMIKPFFHSLSEKYSNVIFLEVDVDDCQDVASECEVKCMPTFQFFKKGQKVGEFSGANKEKLEATINELV", "values": [{"measurement": "increase of sol elastase activity", "setting": "elastase", "value": 60, "unit": "%"}]}]}
